Measured values published in patent publication US12398124B2, “Pyrrolobenzodiazepine dimer prodrug and ligand-linker conjugate compound of the same” (priority 2017, dated 2025).
Where two headings read alike, the source gives them in different places. Where a SMILES comes first, the peptide text is derived from it. [ ]: non-standard residue; d: D form. Dolaproine = CO[C@@H]([C@@H]1CCCN1)[C@@H](C)C(=O)O; Dil = CC[C@H](C)[C@H](NC)[C@@H](CC(=O)O)OC; NMeV = CN[C@H](C(=O)O)C(C)C

Columns and labels:
Assay in all cases: Cytotoxicity in vitro (cell proliferation inhibition, SRB dye)
Assay type in all cases: cell-based, human
[1] = tested on: JIMT-1 (HER2 positive); conditions: JIMT-1 breast cancer cells
Description: (§1) The cell proliferation inhibitory activity of the drug and ADCs presented in the following Table 2 on cancer cell lines was measured. As the cancer cell lines, commercially available human breast cancer cell lines MCF-7 (HER2 negative to normal), SK-BR3 (HER2 positive), and JIMT-1 (HER2 positive) were used. MMAF-OMe was used as the drug and the ADCs in Table 1 were used as the ADC. Each of the cancer cell lines was seeded in a 96-well plate by from 5,000 to 13,000 per well for the 72 hour treatment group and from 1,500 to 3,000 per well for the 168 hour treatment group, incubated for 24 hours, and then treated with antibodies and ADCs at a concentration of from 0.0051 to 33.33 nM or from 0.0015 to 10.0 nM (three times serial dilutions) and drugs at a concentration of from 0.023 to 50 nM (three times serial dilutions). After 72/168 hours, the number of living cells was quantified using SRB (Sulforhodamine B) dye.

[2] = tested on: MCF-7 (HER2 negative to normal); conditions: MCF7 breast cancer cells
Description: as §1

[3] = tested on: SK-BR3 (HER2 positive); conditions: SK-BR3 breast cancer cells
Description: as §1

Compound `CC[C@H](C)[C@@H]([C@@H](CC(=O)N1CCC[C@H]1[C@H](OC)[C@@H](C)C(=O)N[C@@H](Cc1ccccc1)C(=O)OC)OC)N(C)C(=O)[C@@H](NC(=O)[C@@H](NC)C(C)C)C(C)C` [MMAF-OMe] (H-[NMeV]V[Dil][Dolaproine]F-OMe) has a CC50 ([1]; 72 hr treatment, read-out: CC50 (nM) JIMT-1 72 hr) of 0.14 nM, a CC50 ([1]; 168 hr treatment, read-out: CC50 (nM) JIMT-1 168 hr) of 0.06 nM and a CC50 ([2]; 72 hr treatment, read-out: CC50 (nM) MCF7 72 hr) of 0.84 nM. The CC50 ([2]; 168 hr treatment, read-out: CC50 (nM) MCF7 168 hr) was 0.19 nM, the CC50 ([3]; 72 hr treatment, read-out: CC50 (nM) SK-BR3 72 hr) was 0.14 nM and the CC50 ([3]; 168 hr treatment, read-out: CC50 (nM) SK-BR3 168 hr) was 0.06 nM.
